What all share (format): in vivo
In test [1] the test system is Alopecurus myosuroides. Nature of the test: Pre-emergence herbicidal effect, greenhouse pot test. The settings on record: 504 h, 320 g a.i./ha, visual score after 3 weeks, 100% = plants have died, 0% = like control, read-out: Herbicidal effect against [%] ALOMY. From the text: (§1) Seeds of monocotyledonous and dicotyledonous weed plants and crop plants are laid out in wood-fibre pots in sandy loam and covered with soil. The compounds according to the invention formulated in the form of wettable powders (WP) or as emulsion concentrates (EC) are then applied as aqueous suspension or emulsion at a water application rate of 600 to 800 l/ha (converted) with the addition of 0.2% wetting agent to the surface of the covering soil. After the treatment, the pots are placed in a greenhouse and kept under good growth conditions for the trial plants. The damage to the test plants is scored visually after a test period of 3 weeks by comparison with untreated controls (herbicidal activity in percent (%): 100% activity=the plants have died, 0% activity=like control plants). [table]

Test [2] deals with Avena fatua. The description is as above. The settings on record: 504 h, 320 g a.i./ha, visual score after 3 weeks, 100% = plants have died, 0% = like control, read-out: Herbicidal effect against [%] AVEFA.
From the text: as §1

Test [3] has as its system Echinochloa crus-galli. The test is described as above. The note with it: 504 h, 320 g a.i./ha, visual score after 3 weeks, 100% = plants have died, 0% = like control, read-out: Herbicidal effect against [%] ECHCG.
From the text: as §1

The test system of test [4] is Lolium multiflorum. Described as above. The settings on record: 320 g a.i./ha, visual score after 3 weeks, 100% = plants have died, 0% = like control.
From the text: as §1

The test system of test [5] is Setaria viridis. Described as above. The settings on record: 504 h, 320 g a.i./ha, visual score after 3 weeks, 100% = plants have died, 0% = like control, read-out: Herbicidal effect against [%] SETVI.
From the text: as §1

The test system of test [6] is Alopecurus myosuroides. Put plainly: Post-emergence herbicidal effect, greenhouse pot test. The settings on record: 504 h, 80 g a.i./ha, one-leaf stage, visual score after about 3 weeks, 100% = plants have died, read-out: Herbicidal effect against [%] ALOMY. On the procedure: (§2) [table] Seeds of monocotyledonous and dicotyledonous weed and crop plants are laid out in sandy loam in wood-fibre pots, covered with soil and cultivated in a greenhouse under good growth conditions. 2 to 3 weeks after sowing, the test plants are treated at the one-leaf stage. The compounds according to the invention, formulated in the form of wettable powders (WP) or as emulsion concentrates (EC), are then sprayed as aqueous suspension or emulsion at a water application rate of 600 to 800 l/ha (converted) with the addition of 0.2% of wetting agent onto the green parts of the plants. After the test plants have been left to stand in the greenhouse under optimal growth conditions for about 3 weeks, the action of the preparations is assessed visually in comparison to untreated controls (herbicidal action in percent (%): 100% activity=the plants have died, 0% activity=like control plants).

Test [7] relates to Echinochloa crus-galli. The test is described as above. The note with it: 504 h, 80 g a.i./ha, one-leaf stage, visual score after about 3 weeks, 100% = plants have died, read-out: Herbicidal effect against [%] ECHCG. How it is done: as §2
Test [8] has as its system Setaria viridis. The test is described as above. The note with it: 504 h, 80 g a.i./ha, one-leaf stage, visual score after about 3 weeks, 100% = plants have died, read-out: Herbicidal effect against [%] SETVI. How it is done: as §2

Molecules are shown by their SMILES.

For `COC1CCC2(CC1)NC(=O)C(c1c(C)cc(C#CC3CC3)cc1C)=C2O` (stereo not drawn) [Example D11, cis-3-[4-(Cyclopropylethynyl)-2,6-dimethylphenyl]-4-hydroxy-8-methoxy-1-azaspiro[4.5]dec-3-en-2-one], the pest or weed control at 320 g/ha in test [1], in test [2], in test [3] and in test [5] was 80 to 100% each time. Further, in test [4], the “Herbicidal effect against [%] LOLMU” value was 100%. The pest or weed control at 80 g/ha in test [6], in test [7] and in test [8] was 90 to 100% in each case.
Turning to `CCc1cc(C#CC2CC2)cc(C)c1C1=C(O)C2(CCC(OC)CC2)NC1=O` (centres unmarked) [Example D10], the pest or weed control at 320 g/ha in test [1], in test [2], in test [3] and in test [5] was 80 to 100% throughout. For the same compound, in test [4], the “Herbicidal effect against [%] LOLMU” value came to 100%. Besides, the pest or weed control at 80 g/ha in test [6], in test [7] and in test [8] was 90 to 100% throughout.
On to `CCc1cc(C#CC2CC2)cc(C)c1C1=C(OC(=O)C(C)C)C2(CCC(OC)CC2)NC1=O` (centres unmarked) [Example P15], for which the pest or weed control at 320 g/ha in test [1], in test [2], in test [3] and in test [5] was 80 to 100% throughout. Besides, in test [4], the “Herbicidal effect against [%] LOLMU” value worked out at 100%. In addition, the pest or weed control at 80 g/ha in test [6], in test [7] and in test [8] was 90 to 100% throughout.
Consider `CCOC(=O)OC1=C(c2c(C)cc(C#CC3CC3)cc2CC)C(=O)NC12CCC(OC)CC2` (centres unmarked) [Example P14], for which the pest or weed control at 320 g/ha in test [1], in test [2], in test [3] and in test [5] was 80 to 100% each time. Further, in test [4], the “Herbicidal effect against [%] LOLMU” value is given as 100%. In addition, the pest or weed control at 80 g/ha in test [6], in test [7] and in test [8] was 90 to 100% throughout.

For the origin of these results see patent US20180282275A1, “New alkynyl-substituted 3-phenylpyrrolidine-2,4-diones and use thereof as herbicides” (Bayer CropScience Aktiengesellschaft, priority 2015, published 2018).
